Measurements from US11345700B2, “Methods of preparing inhibitors of influenza viruses replication” (priority 2013, dated 2022).
Read-outs that look alike come from different tables or passages of the source. Marks after values point to notes of the source that are not given here.

How the values were obtained:
[1] = 2 weeks
[2] = system: Influenza A/California/04/2009 (pndH1N1) virus; type: in vivo, BALB/c mice; details: mouse, in vivo
[3] = system: Influenza A/Victoria/3/75 (H3N2) virus; type: in vivo, BALB/c mice; details: mouse, in vivo
[4] = system: Influenza A/Vietnam/1203/2004 (H5N1) virus; type: in vivo, BALB/c mice; details: 10 mg/kg p.o. twice a day for 10 days; Treatment (+48 h)
influenza A virus = experiment: Mouse influenza A model: prophylactic dose response and delayed treatment, survival and body weight loss; type: in vivo, mice; details: 10 mg/kg BID
From the text: The prophylactic dose response of Compound (1) was investigated in the mouse influenza A model. […] All of the mice that received vehicle alone succumbed to the infection by study day 9 and had lost, on average, ˜32% of their body weight (BW).
All vehicle controls succumbed to disease by study days 8 or 9.

influenza A = experiment: Mouse model of influenza A: lung viral titers; type: in vivo, mice; details: Study 1, 10 mg/kg BID from 24 h post infection for 5 days
A/Puerto Rico/8/34 [5] = system: A/Puerto Rico/8/34
influenza A/PR/8/34 = experiment: In vivo combination of Compound (1) with zanamivir, influenza A challenge in mice; details: no Compound (1)
From the text: Efficiency quotient, a composite measure of survival, bodyweight loss and lung function (% survival/(% body weight loss at Day 8)*(Penh at Day 6)) is summarized in Table 19B.

A/Puerto Rico/8/34 [6] = type: cell-based, influenza A virus
[7] = in Nitromethane, ambient temperature
[8] = treatment start +24 h relative to infection
[9] = treatment start +48 h relative to infection
[10] = treatment start +72 h relative to infection
[11] = treatment start −2 h relative to infection
[12] = Zanamivir 0.3 mg/kg IN x 1, 24 h prior to infection
[13] = Zanamivir 1 mg/kg IN x 1, 24 h prior to infection
[14] = Zanamivir 3 mg/kg IN x 1, 24 h prior to infection

## Cl.Cl.O.O=C(O)[C@H]1C2CCC(CC2)[C@@H]1Nc1nc(-c2c[nH]c3ncc(F)cc23)ncc1F.O=C(O)[C@H]1C2CCC(CC2)[C@@H]1Nc1nc(-c2c[nH]c3ncc(F)cc23)ncc1F [Form A HCl salt of Compound (1)]
[1]
  Sol.: 0.6 mg/mL
[1]; [7]
  Sol.: <0.1 mg/mL

## O=C(O)[C@H]1C2CCC(CC2)[C@@H]1Nc1nc(-c2c[nH]c3ncc(F)cc23)ncc1F [Form A free base Compound (1)]
[1]
  Sol.: <0.1 mg/mL
[1]; [7]
  Sol.: 0.3 mg/mL

## CCOC(=O)C1=C[C@@H](OC(CC)CC)[C@H](NC(C)=O)[C@@H](N)C1 [Oseltamivir, reference compound]
[2]
  Mean Lung Parameters (Day 6): Score (hemorrhage score 0-4): 1.0
  Mean Lung Parameters (Day 6): Virus Titer: 7.9 Log10 CCID50/g
  Mean Lung Parameters (Day 6): Weight: 178 mg
  Survivors/Total: 10/10***
[3]
  MDD ± SD (mean day of death of mice that died on or before day 21): 7.0
  Mean Lung Parameters (Day 6): Score (hemorrhage score 0-4): 1.7
  Mean Lung Parameters (Day 6): Virus Titer: 7.0 Log10 CCID50/g
  Mean Lung Parameters (Day 6): Weight: 218 mg
  Survivors/Total: 9/10***
[4]
  MDD ± SD (mean day of death of mice that died on or before day 21): 9.5 ± 1.2
  Mean Lung Parameters (Day 6): Virus Titer: 5.22 ± 0.38 Log10 CCID50/g
  Survivors/Total: 0/10
Influenza A virus; same experiment (prophylactic)
  survival: All of the oseltamivir-administered mice survived
Influenza A virus; only when dosing was initiated 24 h or less post infection
  protection from death: complete protection
Influenza A virus; [8]
  Percent Body Weight Loss on Study Day 8: −28.9%
  Percent Survival: 100%
Influenza A virus; [9]
  Percent Body Weight Loss on Study Day 8: −31.1%
  Percent Survival: 80%
Influenza A virus; [10]
  Percent Body Weight Loss on Study Day 8: −31.3%
  Percent Survival: 0%
Influenza A virus; [11]
  Percent Body Weight Loss on Study Day 8: −19.1%
  Percent Survival: 100%
Influenza A; study day 6
  Log10 Reduction vs. Vehicle: −0.15
Influenza A; titers on study day 6
  Lung Viral Titer: 6.05 Log10 TCID50
A/Puerto Rico/8/34 [5]
  C.I. (combination index) values at the 50% effect level: 0.58

## CC(=O)N[C@H]1[C@H]([C@H](O)[C@H](O)CO)OC(C(=O)O)=C[C@@H]1N=C(N)N [Zanamivir, reference compound]
Influenza A/PR/8/34; [12]
  Efficiency Quotient (% survival/(% body weight loss at Day 8)*(Penh at Day 6)): 0.44
  Survival Rate: 37.5
Influenza A/PR/8/34; [13]
  Efficiency Quotient (% survival/(% body weight loss at Day 8)*(Penh at Day 6)): 0.73
  Survival Rate: 50
Influenza A/PR/8/34; [14]
  Efficiency Quotient (% survival/(% body weight loss at Day 8)*(Penh at Day 6)): 0.73
  Survival Rate: 62.5
A/Puerto Rico/8/34 [6]
  Synergy Volume, 95% Confidence: 268
A/Puerto Rico/8/34 [5]
  C.I. (combination index) values at the 50% effect level: 0.64

## NC(=O)c1nc(F)c[nH]c1=O [favipiravir]
A/Puerto Rico/8/34 [6]
  Synergy Volume, 95% Confidence: 317
A/Puerto Rico/8/34 [5]
  C.I. (combination index) values at the 50% effect level: 0.89

## CCC(CC)O[C@@H]1C=C(C(=O)O)C[C@H](N)[C@H]1NC(C)=O [oseltamivir carboxylate]
A/Puerto Rico/8/34 [6]
  Synergy Volume, 95% Confidence: 312
